Assay results published in publication PMC3494461 (Journal of the American Chemical Society, 2012).
pKd: −log10 of the molar value.

Assays:
DXP synthase [1] = biological target: T1, DXP synthase (Escherichia coli, UniProt P77488); experiment: steady-state DXP formation, Michaelis-Menten plot; format: biochemical; conditions: D-GAP supplied as D,L-GAP; with pyruvate
T1 sequence (P77488 2-620): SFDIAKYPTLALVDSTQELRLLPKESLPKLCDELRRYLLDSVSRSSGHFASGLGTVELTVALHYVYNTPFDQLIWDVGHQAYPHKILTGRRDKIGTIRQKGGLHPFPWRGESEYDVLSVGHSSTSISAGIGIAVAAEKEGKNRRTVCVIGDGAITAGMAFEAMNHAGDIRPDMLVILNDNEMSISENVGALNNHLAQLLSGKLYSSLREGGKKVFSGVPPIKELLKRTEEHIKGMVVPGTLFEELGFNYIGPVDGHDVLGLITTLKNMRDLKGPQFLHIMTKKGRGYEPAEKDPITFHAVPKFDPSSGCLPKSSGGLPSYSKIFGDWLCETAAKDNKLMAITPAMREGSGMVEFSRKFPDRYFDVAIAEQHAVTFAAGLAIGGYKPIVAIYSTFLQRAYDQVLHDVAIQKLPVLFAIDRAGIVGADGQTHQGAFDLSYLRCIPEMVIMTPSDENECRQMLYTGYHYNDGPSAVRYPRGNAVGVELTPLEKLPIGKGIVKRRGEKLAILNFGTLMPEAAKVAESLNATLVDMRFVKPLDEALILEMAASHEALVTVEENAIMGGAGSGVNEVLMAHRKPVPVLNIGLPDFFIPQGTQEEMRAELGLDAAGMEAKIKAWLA

DXP synthase [2] = biological target: T1, DXP synthase; experiment: near-UV CD of enzyme-bound ThDP; format: binding; conditions: AP tautomer dominant at pH 7.98
DXP synthase [3] = biological target: T1, DXP synthase; experiment: CD titration at […] nm; format: binding

SMILES: O=C[C@H](O)COP(=O)(O)O [D-GAP]
- Km (DXP synthase [1]): Michaelis-Menten plot to determine the Km for D-GAP

SMILES: Cc1ncc(C[n+]2csc(CCOP(=O)(O)OP(=O)(O)O)c2C)c(N)n1 [ThDP]
- near-UV CD of enzyme-bound ThDP (negative band at 320 nm) (DXP synthase [2]): suggesting the preponderance of the AP tautomer of ThDP bound to the enzyme

SMILES: CC(=O)C(=O)O [pyruvate]
- pKd (DXP synthase [3]): ~4.05
